Like-named read-outs stand apart in the source and are kept apart here. Non-standard residues stand in square brackets, D forms with d. Residues, ends and D or L forms follow the SMILES beside them. *: point of attachment. Daunorubicin(13-NOCH2CO) = COc1cccc2c1C(=O)c1c(O)c3c(c(O)c1C2=O)C[C@@](O)(C(C)=NOCC(=O)*)C[C@@H]3O[C@H]1C[C@H](N)[C@H](O)[C@H](C)O1; pGlu = O=C1CC[C@@H](C(=O)O)N1; Butyryl = CCCC(=O)*
Tests used:
[1] = system: HT-29 human colon cancer cell line; experiment: In vitro cytostatic effect, alamarBlue assay, HT-29; assay type: cell-based
Source text: Cell lines often function as the first model system of choice to study biological processes or to test the efficiency of drugs or drug conjugates and their cytotoxic effects. Immortal cell lines offer various benefits, for instance they are easy to handle, cost-effective and provide consistent sample and reproducible results. Nevertheless, cell lines also present the disadvantage that after a period of continuous growth, cell characteristics can change and dedifferentiate in culture. The serial passaging can cause genotypic and phenotypic variations and the state of confluency can also affect gene expression pattern in some cell lines. Due to this, the usage of internal standards during the evaluation of new potential candidates might be necessary to ensure comparability with previous results. The cytostatic effect of the novel GnRH-III bioconjugates was determined on HT-29 human colon cancer and MCF-7 human breast cancer cell lines by alamarBlue® assay. For a better comparison, the well-studied bioconjugates GnRH-III–[^8Lys(Dau=Aoa)] (K1) and GnRH-III–[^4Lys(Bu), ^8Lys(Dau=Aoa)] (K2) were used as positive controls and internal standards. The corresponding IC50 values were calculated by using nonlinear regression (sigmoidal dose response) (Figure 3, Table 2). Unfortunately, the D-Trp containing compounds 3 and 6 started to precipitate in both cell culture media at higher concentrations limiting the concentration down to a maximum of 10 µM. This effect could not be prevented by using DMSO instead of ddH2O for the preparation of the stock solutions. Unfortunately, the lower concentration range with a maximum of 10 µM was not sufficient to achieve the dose-response. […] Nevertheless, the replacement of ^6Asp by D-Asp, D-Glu or D-Trp led to a decreased cytostatic effect on the estimated cancer cell lines.
MCF-7 human breast adenocarcinoma cells were cultured in Dulbecco’s Modified Eagle Medium (DMEM, Lonza, Basel, Switzerland), supplemented with 10% (v/v) fetal bovine serum (FBS, Lonza), L-glutamine (2 mM, Lonza), non-essential amino acids (NEAA, Sigma-Aldrich Kft), sodium pyruvate (1 mM, Lonza) and penicillin-streptomycine (Lonza). […]
Cells were seeded to 96-well plates (Sarstedt, Nümbrecht, Germany, 5 × 10^3 cells/well) one day prior to the treatment in complete cell medium. […] Fluorescence was detected using Synergy H4 multi-mode microplate reader (BioTek, Winooski, VT, USA), excitation and emission wavelengths were set to 570 and 620 nm, respectively. Cytostasis was measured using 4 parallels, each experiment was repeated twice. Cytostatic effect (and IC50 values) were calculated by using nonlinear regression (sigmoidal dose response) with Origin Pro8 (OriginLab Corp., Northampton, MA, USA.).

[2] = target: T1, GnRH-RI (Homo sapiens, UniProt P30968); experiment: Competitive inhibition of [125I][6D-Trp]-GnRH-I binding, human prostate cancer membranes; parameters: human prostate cancer cells were obtained from a patient at the time of initial surgical treatment; from tissue; host or cells: human prostate cancer specimen from a patient (surgery); membrane homogenate
T1 sequence (P30968 1-328): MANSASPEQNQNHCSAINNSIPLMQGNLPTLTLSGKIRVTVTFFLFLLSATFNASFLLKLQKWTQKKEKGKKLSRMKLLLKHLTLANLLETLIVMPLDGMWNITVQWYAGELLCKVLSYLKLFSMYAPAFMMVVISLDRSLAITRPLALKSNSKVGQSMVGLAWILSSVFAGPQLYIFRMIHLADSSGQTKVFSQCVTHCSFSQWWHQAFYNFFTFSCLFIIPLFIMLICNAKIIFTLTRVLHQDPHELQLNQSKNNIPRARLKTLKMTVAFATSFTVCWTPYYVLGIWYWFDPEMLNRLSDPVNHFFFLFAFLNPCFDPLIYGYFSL
Method: (§1) To investigate the binding affinity of the novel compounds to the GnRH-receptor, an in vitro ligand competition assay has been performed on human pituitary and GnRH-R positive human prostate cancer tissues. Hereby, the displacement of radiolabeled triptorelin by the unlabeled bioconjugates 1, 2, 4 and 5 was determined. For a better comparison, the bioconjugates K1 and K2 were also analyzed and used as reference. The obtained results summarized in Table 3 point out that all bioconjugates replaced [^125I]-triptorelin with IC50 values in low nanomolar range. […] (1.6 nM and 0.9 nM) and GnRH-II–[D-Lys^6(Dau=Aoa)] (4.2 nM and 2.1 nM).
(§2) Radiolabeled triptorelin was used for displacement studies to evaluate the binding affinity of the conjugates K1, K2, 1, 2, 4 and 5 to GnRH-RI on human pituitary and human prostate cancer cells. […] The binding affinities of the nonradio-labeled GnRH-III bioconjugates to GnRH-RI were determined by displacement of [^125I]-GnRH-I-[^6D-Trp] performing an in vitro ligand competition assay as recently reported. […] Supernatants were aspirated and the bottoms of the tubes containing the pellet were cut off and counted in a gamma counter. Protein concentration was determined by the method of Bradford using a Bio-Rad protein assay kit (Bio-Rad Laboratories, USA). […]

[3] = target: T1, GnRH-RI; experiment: Competitive inhibition of [125I][6D-Trp]-GnRH-I binding, human pituitary membranes; parameters: human prostate cancer cells were obtained from a patient at the time of initial surgical treatment; from tissue; host or cells: human prostate cancer specimen from a patient (surgery); membrane homogenate
Method: as §1, §2

Structure (SMILES)	IC50 ([1]; 24 h)	IC50 ([2]; displacement of [125I]-triptorelin, human prostate cancer membranes, mean ± SE, read-out: IC50 prostate cancer)	IC50 ([3]; displacement of [125I]-triptorelin, human pituitary membranes, mean ± SE, read-out: IC50 pituitary)	IC50 ([1]; 24 h treatment, then 48 h in complete medium, alamarBlue, mean ± SE, read-out: HT-29 IC50)	IC50 [2]	IC50 [3]
COc1cccc2c1C(=O)c1c(O)c3c(c(O)c1C2=O)C[C@@](O)(C(C)=NOCC(=O)NCCCC[C@H](NC(=O)[C@H](Cc1c[nH]c2ccccc12)NC(=O)[C@@H](CCC(=O)O)NC(=O)[C@H](Cc1c[nH]cn1)NC(=O)[C@H](CO)NC(=O)[C@H](Cc1c[nH]c2ccccc12)NC(=O)[C@H](Cc1c[nH]cn1)NC(=O)[C@@H]1CCC(=O)N1)C(=O)N1CCC[C@H]1C(=O)NCC(N)=O)C[C@@H]3O[C@H]1C[C@H](N)[C@H](O)[C@H](C)O1 [compound 2, [6D-Glu, 8Lys(Dau=Aoa)]] ([pGlu]HWSH[dE]WK(Daunorubicin(13-NOCH2CO))PG-NH2)	10100 ± 1400 nM	10.4 ± 1.3 nM	23.5 ± 2.1 nM			
CCCC(=O)NCCCC[C@H](NC(=O)[C@H](Cc1c[nH]c2ccccc12)NC(=O)[C@H](Cc1c[nH]cn1)NC(=O)[C@@H]1CCC(=O)N1)C(=O)N[C@@H](Cc1c[nH]cn1)C(=O)N[C@H](CCC(=O)O)C(=O)N[C@@H](Cc1c[nH]c2ccccc12)C(=O)N[C@@H](CCCCNC(=O)CON=C(C)[C@]1(O)Cc2c(O)c3c(c(O)c2[C@@H](O[C@H]2C[C@H](N)[C@H](O)[C@H](C)O2)C1)C(=O)c1c(OC)cccc1C3=O)C(=O)N1CCC[C@H]1C(=O)NCC(N)=O [compound 5, [4Lys(Bu), 6D-Glu, 8Lys(Dau=Aoa)]] ([pGlu]HWK(Butyryl)H[dE]WK(Daunorubicin(13-NOCH2CO))PG-NH2)				13700 ± 2600 nM	11.6 ± 2 nM	7.9 ± 1.1 nM

Source: PMC5905287, “Synthesis and in vitro biochemical evaluation of oxime bond-linked daunorubicin–GnRH-III conjugates developed for targeted drug delivery” (Beilstein Journal of Organic Chemistry, 2018)
